The text below walks through data of US8377957B2, “Hydroxy and alkoxy substituted 1H-imidazoquinolines and methods” (3M Innovative Properties Company, priority 2005, dated 2013).

What is called melting point is the temperature of the solid-liquid transition.

Consider `C[C@@H](c1ccccc1)n1c(O)nc2c(N)nc3ccccc3c21` [Example 5, 4-Amino-1-[(1S)-1-phenylethyl]-1H-imidazo[4,5-c]quinolin-2-ol], for which the melting point lay within 292 to 295 °C.

The compound `COc1nc2c(N)nc3ccccc3c2n1Cc1ccccc1` [Example 7, 1-Benzyl-2-methoxy-1H-imidazo[4,5-c]quinolin-4-amine] had a melting point of 240 to 242 °C.
